Test results reported in patent US10392422B2, “Macrocyclic broad spectrum antibiotics” (priority 2014, dated 2019).
In brackets after ≈: the same amount, converted by molar mass. Where two headings read alike, the source gives them in different places.

How the values were obtained:
Assay in all cases: MIC, broth micro-dilution technique (CLSI)
[1] = test system: Escherichia coli MC4100 harboring the IMP4213; type: cell-based; conditions: 35° C., 22 hours; for MIC: Escherichia coli, 22 h
Description: (§1) In vitro antimicrobial activity of each compound was determined by measuring minimal inhibitor concentrations (MICs) using the broth micro-dilution technique as approved by the Clinical and Laboratory Standards Institute (CLSI) (Methods for Dilution Antimicrobial Susceptibility Tests for Bacteria that Grow Aerobically; Approved Standard—Eighth Edition. CLSI document M07-A8. Wayne, Pa.: Clinical and Laboratory Standards; 2009). Antibacterial activity was measured against three strains of bacteria: a Methicillin Resistant Staphylococcus aureus strain USA 300 (NRS384); a MRSA COL (NRS100), another Methicillin Resistant Staphylococcus aureus strain; and a strain of Escherichia coli MC4100 harboring the IMP4213, which results in increased outer-membrane permeability (B Martin and Silhavy T. Imp/OstA is required for cell envelope biogenesis in Escherichia coli. (2002) Molecular Microbiology, 45(5), 1289-1302). Cells were inoculated onto plates of Trypyticase Soy Agar or Luria Agar respectively and grown at 35° C. for 20 hours. Inocula suspensions were prepared by scraping cells into 1 ml of testing media (cation adjusted Mueller Hinton Broth supplemented with 0.002% v/v Tween-80) and diluting to a final OD600 nm of 0.01.
(§2) Test compounds were prepared in DMSO at a concentration of 10 mg/ml. These compound stocks were diluted into testing media at a concentration of 64 μg/ml and serial 2-fold dilutions were made in the same media, in 96-well U bottom microtiter dishes, for a total of 10 compound concentrations (Table 1). In modified protocols (Table 2), compound stocks were diluted into testing media at a concentration of 4 μg/mL and serial 2-fold dilutions were made in the same media, in 96-well U bottom microtiter dishes, for a total of 10 compound concentrations. Inocula suspensions were added to the 2-fold serial dilutions of test compounds to a final density of OD OD600 nm of 0.0005 and incubated at 35° C. for 22 hours. […] The results from the protocol starting from a concentration of 64 µg/mL are listed in Table 1 and the results from the modified protocol are shown in Table 2.

[2] = test system: Methicillin Resistant Staphylococcus aureus strain USA 300 (NRS384); type: cell-based; conditions: for MIC: Staphylococcus aureus, 22 h, read-out: MIC (μg/mL) S. aureus
Description: as §1, §2

MRSA COL (NRS100) = type: cell-based, Staphylococcus aureus; conditions: for MIC: Staphylococcus aureus, 22 h, read-out: MIC (μg/mL) (COL)
Description: as §1, §2

[3] = read-out: MIC (μg/mL) E. coli, Table 2 modified protocol: serial 2-fold dilutions starting from 4 μg/mL
[4] = read-out: MIC (μg/mL) E. coli, Table 1 protocol: serial 2-fold dilutions starting from 64 μg/ml
[5] = Table 1 protocol: serial 2-fold dilutions starting from 64 μg/ml, 35° C., 22 hours
[6] = Table 2 modified protocol: serial 2-fold dilutions starting from 4 μg/mL
[7] = Table 2 modified protocol: serial 2-fold dilutions starting from 4 μg/mL, 35° C., 22 hours

SMILES	MIC [2] [µg/mL]	MIC (MRSA COL (NRS100)) [µg/mL]	MIC [1, 4] [µg/mL]	MIC [2, 5] [µg/mL]	also measured
C[C@@H]1NC(=O)[C@@H](N(C)C(=O)[C@H](CCCCN)NC(=O)Cc2ccc(-c3ccc(Cl)cc3)cc2)c2ccc(OCCN)c(c2)-c2cc(ccc2OCCN)C[C@@H](C(=O)O)NC1=O [Compound 286]	4 (≈ 4.67 µM)	1.5 (≈ 1.75 µM)	–	–	MIC [1, 3]: 4 µg/mL (≈ 4.67 µM)
C[C@@H]1NC(=O)[C@@H](N(C)C(=O)[C@H](CCCCN)NC(=O)c2ccc(-c3ccc(Cl)cc3)cc2)c2ccc(OCCN)c(c2)-c2cc(ccc2OCCN)C[C@@H](C(=O)N[C@@H](C)C(=O)N2CCC[C@H]2C(N)=O)NC1=O [Compound 277]	–	–	2 (≈ 1.98 µM)	0.75 (≈ 0.743 µM)	MIC (MRSA COL (NRS100); [5]): 0.25 µg/mL (≈ 0.248 µM)
CCCCCCCCCC(=O)N[C@@H](CO)C(=O)N(C)[C@@H]1C(=O)N[C@@H](C)C(=O)N[C@H](C(=O)N[C@@H](C)C(=O)c2nnn[nH]2)Cc2ccc(OCCN)c(c2)-c2cc1ccc2OCCN.O=CO [Compound 265]	–	–	–	–	MIC (μg/mL) E. coli [1, 6]: 4 µg/mL; MIC (μg/mL) S. aureus [2, 7]: 1 µg/mL; MIC (μg/mL) (COL) (MRSA COL (NRS100); [7]): 0.25 µg/mL
CCCCc1ccc(-c2ccc(C(=O)N[C@@H](CCCCN)C(=O)N(C)[C@@H]3C(=O)N[C@@H](C)C(=O)N[C@H](C(=O)N[C@@H](C)B4O[C@@H]5C[C@@H]6C[C@@H](C6(C)C)[C@]5(C)O4)Cc4ccc(OCCN)c(c4)-c4cc3ccc4OCCN)cc2)cc1 [Compound 316]	0.13 (≈ 0.122 µM)	0.031 (≈ 0.029 µM)	0.094 (≈ 0.0879 µM)	–	–
CC(=O)[C@H](C)NC(=O)[C@@H]1Cc2ccc(OCC(=O)O)c(c2)-c2cc(ccc2OCCN)[C@H](N(C)C(=O)[C@H](CCCCN)NC(=O)c2ccc(-c3ccc(Cl)cc3)cc2)C(=O)N[C@@H](C)C(=O)N1 [Compound 208]	–	–	16 (≈ 17.3 µM)	23 (≈ 24.8 µM)	MIC (MRSA COL (NRS100); [5]): 6 µg/mL (≈ 6.48 µM)
CCCCCCCCCCS(=O)(=O)N[C@@H](CCCCN)C(=O)N(C)[C@@H]1C(=O)N[C@@H](C)C(=O)N[C@H](C(=O)N[C@@H](C)C(=O)c2nnn[nH]2)Cc2ccc(OCCN)c(c2)-c2cc1ccc2OCCN.O=CO [Compound 258]	–	–	–	–	MIC (μg/mL) E. coli [1, 6]: 4 µg/mL; MIC (μg/mL) S. aureus [2, 7]: 0.047 µg/mL; MIC (μg/mL) (COL) (MRSA COL (NRS100); [7]): 0.012 µg/mL
CCCCCCCCC(=O)N[C@@H](CCN)C(=O)N(C)[C@@H]1C(=O)N[C@@H](C)C(=O)N[C@H](C(=O)O)Cc2ccc(OCCN)c(c2)-c2cc1ccc2OCCN [Compound 307]	4 (≈ 5.41 µM)	3 (≈ 4.05 µM)	–	–	MIC [1, 3]: 1 µg/mL (≈ 1.35 µM)
CCCCCCCCCCCCCC(=O)N[C@@H](CCN)C(=O)N(C)[C@@H]1C(=O)N[C@@H](C)C(=O)N[C@H](C(=O)N[C@@H](C)B2O[C@@H]3C[C@@H]4C[C@@H](C4(C)C)[C@]3(C)O2)Cc2ccc(OCCN)c(c2)-c2cc1ccc2OCCN [Compound 325]	0.13 (≈ 0.128 µM)	0.023 (≈ 0.0227 µM)	–	–	MIC [1, 3]: 0.13 µg/mL (≈ 0.128 µM)
CCN(CC(N)=O)C(=O)[C@H](C)NC(=O)[C@@H]1Cc2ccc(O)c(c2)-c2cc(ccc2O)[C@H](N(C)C(=O)[C@H](CCCCN)NC(=O)c2ccc(-c3ccc(Cl)cc3)cc2)C(=O)N[C@@H](C)C(=O)N1 [Compound 234]	–	–	64 (≈ 70.2 µM)	64 (≈ 70.2 µM)	MIC (MRSA COL (NRS100); [5]): 8 µg/mL (≈ 8.78 µM)
C[C@@H]1NC(=O)[C@@H](N(C)C(=O)[C@H](CCCCN)NC(=O)c2ccc(-c3ccc(Cl)cc3)cc2)c2ccc(O)c(c2)-c2cc(ccc2O)C[C@@H](C(=O)N[C@@H](C)C(=O)c2ncc[nH]2)NC1=O [Compound 232]	–	–	8 (≈ 9.12 µM)	4 (≈ 4.56 µM)	MIC (MRSA COL (NRS100); [5]): 1 µg/mL (≈ 1.14 µM)
C[C@@H]1NC(=O)[C@@H](N(C)C(=O)[C@H](CCCCN)NC(=O)c2ccc(-c3ccc(Cl)cc3)cc2)c2ccc(O)c(c2)-c2cc(ccc2O)C[C@@H](C(=O)N[C@@H](C)C(=O)N(CCO)CC(N)=O)NC1=O [Compound 243]	–	–	–	–	MIC [1, 3]: > 4 µg/mL; MIC [2, 7]: > 4 µg/mL; MIC (MRSA COL (NRS100); [7]): > 4 µg/mL
C[C@H](NC(=O)[C@@H]1Cc2ccc(O)c(c2)-c2cc(ccc2O)[C@H](N(C)C(=O)[C@H](CCCCN)NC(=O)c2ccc(-c3ccc(Cl)cc3)cc2)C(=O)N[C@@H](C)C(=O)N1)C(=O)N[C@@H]1CCNC1=O [Compound 137]	–	–	32 (≈ 35.2 µM)	32 (≈ 35.2 µM)	MIC (MRSA COL (NRS100); [5]): 8 µg/mL (≈ 8.8 µM)
C[C@H](NCC(=O)[C@H](C)NC(=O)[C@@H]1Cc2ccc(O)c(c2)-c2cc(ccc2O)[C@H](N(C)C(=O)[C@H](CCCCN)NC(=O)c2ccc(-c3ccc(Cl)cc3)cc2)C(=O)N[C@@H](C)C(=O)N1)C(N)=O [Compound 125]	32 (≈ 35.1 µM)	8 (≈ 8.78 µM)	–	–	–
C[C@@H]1NC(=O)[C@@H](N(C)C(=O)[C@H](CCCCN)NC(=O)c2ccc(-c3ccc(Cl)cc3)cc2)c2ccc(O)c(c2)-c2cc(ccc2O)C[C@@H](C(=O)N[C@@H](C)C(=O)N2CCC[C@H]2C(=O)NCC(N)=O)NC1=O [Compound 178]	–	–	–	32 (≈ 32.6 µM)	MIC (MRSA COL (NRS100); [5]): 16 µg/mL (≈ 16.3 µM)
CC(=O)[C@H](C)NC(=O)[C@@H]1Cc2ccc(O)c(c2)-c2cc(ccc2OCCN2CCOCC2)[C@H](N(C)C(=O)[C@H](CCCCN)NC(=O)c2ccc(-c3ccc(Cl)cc3)cc2)C(=O)N[C@@H](C)C(=O)N1 [Compound 203]	–	–	–	23 (≈ 24.5 µM)	MIC (MRSA COL (NRS100); [5]): 8 µg/mL (≈ 8.52 µM)
C[C@H](NC(=O)[C@@H]1Cc2ccc(O)c(c2)-c2cc(ccc2O)[C@H](N(C)C(=O)[C@H](CCCCN)NC(=O)c2ccc(-c3ccc(Cl)cc3)cc2)C(=O)N[C@@H](C)C(=O)N1)C(=O)CCC(N)=O [Compound 148]	64 (≈ 72.5 µM)	32 (≈ 36.3 µM)	–	–	–
C[C@@H]1NC(=O)[C@@H](N(C)C(=O)[C@H](CCCCN)NC(=O)c2ccc(-c3ccc(Cl)cc3)cc2)c2ccc(O)c(c2)-c2cc(ccc2O)C[C@@H](C(=O)N[C@@H](C)C(=O)N2CCCC2)NC1=O [Compound 156]	> 64	–	51 (≈ 57.9 µM)	–	–
C[C@@H]1NC(=O)[C@@H](N(C)C(=O)[C@H](CCCCN)NC(=O)c2ccc(-c3ccc(Cl)cc3)cc2)c2ccc(O)c(c2)-c2cc(cc(Br)c2O)C[C@@H](C(=O)O)NC1=O [Compound 165]	45 (≈ 53.9 µM)	–	11 (≈ 13.2 µM)	–	–
C[C@H](NC(=O)[C@@H]1Cc2ccc(O)c(c2)-c2cc(ccc2O)[C@H](N(C)C(=O)[C@H](CCCCN)NC(=O)c2ccc(-c3ccc(Cl)cc3)cc2)C(=O)N[C@@H](C)C(=O)N1)C(=O)COC(=O)c1ncccn1 [Compound 122]	1.4 (≈ 1.48 µM)	–	32 (≈ 33.8 µM)	–	–
CCCCCCCCCCCCCC(=O)N[C@@H](CCN)C(=O)N(C)[C@@H]1C(=O)N[C@@H](C)C(=O)N[C@H](C(=O)O)Cc2ccc(OCCN)c(c2)-c2cc1ccc2OCCN [Compound 299]	0.19 (≈ 0.235 µM)	0.031 (≈ 0.0383 µM)	–	–	–
CCCCCCCC(=O)NCCC(=O)N[C@@H](CCCCN)C(=O)N(C)[C@@H]1C(=O)N[C@@H](C)C(=O)N[C@H](C(=O)N[C@@H](C)C(=O)C2CO2)Cc2ccc(O)c(c2)-c2cc1ccc2O (stereo partly shown) [Compound 101]	64 (≈ 76.6 µM)	–	> 64	–	–
CCOC(=O)CCC(=O)[C@H](C)NC(=O)[C@@H]1Cc2ccc(O)c(c2)-c2cc(ccc2O)[C@H](N(C)C(=O)[C@H](CCCCN)NC(=O)c2ccc(-c3ccc(Cl)cc3)cc2)C(=O)N[C@@H](C)C(=O)N1 [Compound 146]	16 (≈ 17.6 µM)	8 (≈ 8.78 µM)	–	–	–
C[C@@H]1NC(=O)[C@@H](N(C)C(=O)[C@H](CCCCN)NC(=O)c2ccc(-c3ccc(Cl)cc3)cc2)c2ccc(O)c(c2)-c2cc(ccc2O)C[C@@H](C(=O)NCC(=O)N2CC[C@H](O)[C@H]2C(N)=O)NC1=O [Compound 180]	–	–	64 (≈ 69.2 µM)	64 (≈ 69.2 µM)	–
C[C@@H]1NC(=O)[C@@H](N(C)C(=O)[C@H](CCCCN)NC(=O)c2ccc(-c3ccc(Cl)cc3)cc2)c2ccc(O)c(c2)-c2cc(ccc2O)C[C@@H](C(=O)N[C@@H](C)C(=O)N2CC[C@H]2C(N)=O)NC1=O [Compound 171]	–	–	64 (≈ 70.4 µM)	20 (≈ 22 µM)	–
CCCCCCCC(=O)NCCC(=O)N[C@@H](CCCCN)C(=O)N(C)[C@@H]1C(=O)N[C@@H](C)C(=O)N[C@H](C(=O)N[C@@H](C)C(=O)C2CO2)Cc2ccc(O)c(c2)-c2cc1ccc2O (stereo partly shown) [Compound 102]	–	–	–	–	MIC (μg/mL) E. coli ([1]; Table 1 protocol: serial 2-fold dilutions starting from 64 μg/ml): >64 µg/mL; MIC (μg/mL) S. aureus [2, 5]: 64 µg/mL (≈ 76.6 µM)
CCCCCCCC(=O)NCCC(=O)N[C@@H](CCCCN)C(=O)N(C)[C@@H]1C(=O)N[C@@H](C)C(=O)N[C@H](C(=O)N[C@@H](C)C(=O)CCl)Cc2ccc(O)c(c2)-c2cc1ccc2O [Compound 107]	64 (≈ 76 µM)	–	> 64	–	–
